In ChEMBL document CHEMBL3638854, “Chemical compounds” (2015):

Target: T1, Ileal sodium/bile acid cotransporter (Homo sapiens, UniProt Q12908)
T1 sequence (Q12908 whole entry): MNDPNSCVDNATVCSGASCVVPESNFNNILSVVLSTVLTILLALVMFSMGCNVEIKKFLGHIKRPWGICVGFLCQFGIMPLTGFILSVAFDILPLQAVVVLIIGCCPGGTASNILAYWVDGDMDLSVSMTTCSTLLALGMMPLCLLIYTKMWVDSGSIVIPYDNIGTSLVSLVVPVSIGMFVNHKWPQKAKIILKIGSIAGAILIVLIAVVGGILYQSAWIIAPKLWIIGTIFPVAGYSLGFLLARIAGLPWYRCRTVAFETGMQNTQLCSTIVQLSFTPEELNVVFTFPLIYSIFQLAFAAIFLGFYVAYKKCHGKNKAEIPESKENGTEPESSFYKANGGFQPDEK
Assay: Inhibition Assay: On the day of the uptake experiment, 10 mM HEPES was added to Hank's Balanced Salt Solution, and the pH was adjusted to 7.4 with TRIS (HBSSH). The assay buffer was prepared by adding 100 uM [3H]-taurocholate and 10 uM cold taurocholate to room temperature HBSSH. A separate washing buffer was prepared by adding 10 uM cold taurocholate to HBSSH (30 ml per assay plate) and placed on ice. Using 100% DMSO, 8 point, 3-fold dilution curves for each test compound was prepared starting at 200 uM. Similarly, an 8 point dose response curve was prepared of the control compound [(3R,5R)-3-butyl-3-ethyl-7,8-bis(methyloxy)-5-phenyl-2,3,4,5-tetrahydro-1,4-benzothiazepine 1,1-dioxide (Brieaddy, L. E. WO9605188, 1996)] starting at 1.8 mM. Drug plates were created by adding 3 uL of each concentration to a v-bottom 96-well plate then diluted 60-fold with 177 uL of assay buffer. Plates were removed from the incubator and allowed to cool to ambient temperature.

IC50: 13 nM
SMILES: CCCC[C@]1(CC)CS(=O)(=O)c2cc(CN[C@@H](CCS(C)(=O)=O)C(=O)O)c(OC)cc2[C@@H](c2ccccc2)N1
